SMILES strings stand for the structures. pIC50: −log10 of the molar value.

One may read the pIC50 as −log10 of the IC50, conventionally taken in molar units. A higher pIC50 goes with a small IC50.

Chain of Diacylglycerol acyltransferase/mycolyltransferase Ag85C (P9WQN9 whole entry): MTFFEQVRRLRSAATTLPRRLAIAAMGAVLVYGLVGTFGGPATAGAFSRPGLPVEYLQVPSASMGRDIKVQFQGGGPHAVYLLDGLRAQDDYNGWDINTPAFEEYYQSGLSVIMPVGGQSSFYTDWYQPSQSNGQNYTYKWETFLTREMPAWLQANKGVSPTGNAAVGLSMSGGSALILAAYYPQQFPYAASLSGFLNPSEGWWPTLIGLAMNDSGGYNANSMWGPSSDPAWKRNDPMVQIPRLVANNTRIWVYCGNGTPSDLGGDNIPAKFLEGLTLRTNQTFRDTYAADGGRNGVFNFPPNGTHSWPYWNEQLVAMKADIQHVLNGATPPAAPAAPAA

The assay addresses Diacylglycerol acyltransferase/mycolyltransferase Ag85C (Mycobacterium tuberculosis, UniProt P9WQN9). As to the kind of experiment: In vitro concentration required to inhibit antigen 85C mycolyltransferase activity in Mycobacterium tuberculosis.
In turn, `CCCCCCCP(=O)(OCC)OCN1C(=O)c2ccccc2C1=O` (configuration not stated) showed a negative-log IC50 (pIC50) of 5.88.

Consider `CCCCCCCCCCCCCCP(=O)(OCC)OCN1C(=O)c2ccccc2C1=O` (configuration not stated), for which the negative logarithm of the IC50 (pIC50) is 4.39.

`CCCCP(=O)(OCC)OCc1cccc(Oc2ccccc2)c1` (configuration not stated) showed a pIC50 of 5.70. Compared with the last molecule, the pIC50 is 1.31 log units higher. In the case of `CCCCCCP(=O)(OCC)OCc1cccc(Oc2ccccc2)c1` (configuration not stated) it was 4.37; in that of `CCCCCCCCCP(=O)(OCC)OCCN1C(=O)c2ccccc2C1=O` (configuration not stated), 4.59.

With `CCCCCCCCCCCCCCP(=O)(OCC)OCc1cccc(Oc2ccccc2)c1` (configuration not stated), the negative-log IC50 (pIC50) was 3.06. This pIC50 is 1.53 log units lower than that of the molecule before. Turning to `CCCCCCCP(=O)(OCC)OCc1cccc(Oc2ccccc2)c1` (configuration not stated), the pIC50 was 4.68. This pIC50 lies 1.62 log units higher than the previous one. As to `CCCCCCCCCP(=O)(OCC)OCc1cccc(Oc2ccccc2)c1` (configuration not stated), the pIC50 is 4.83.

`CCCCCCCP(=O)(O)OCCN1C(=O)c2ccccc2C1=O` had a pIC50 of 5.83. As for `CCCCCCCCCP(=O)(OCC)OCN1C(=O)c2ccccc2C1=O` (configuration not stated), the negative-log IC50 (pIC50) is 4.06. This pIC50 lies 1.77 log units lower than the previous one. For the molecule `CCCCP(=O)(OCC)OCN1C(=O)c2ccccc2C1=O` (configuration not stated), the pIC50 is 5.00. As for `CCCCP(=O)(OCC)OCCN1C(=O)c2ccccc2C1=O` (configuration not stated), the figure is 4.29; as for `CCCCCCP(=O)(O)OCCN1C(=O)c2ccccc2C1=O`, 5.36; as for `CCCCP(=O)(O)OCC` [ETHYL HYDROGEN BUTYLPHOSPHONATE], 3.37. In the case of `CCCCCCCP(=O)(O)OCC` [ETHYL HYDROGEN HEPTYLPHOSPHONATE] it was 5.97. As for `CCCCCCP(=O)(O)OCC` [ETHYL HYDROGEN HEXYLPHOSPHONATE], the figure is 5.45; as for `CCCCCCCCCP(=O)(O)OCC` [ETHYL HYDROGEN NONYLPHOSPHONATE], 3.33.

These data come from ChEMBL document CHEMBL1147478, “Phosphonate inhibitors of antigen 85C, a crucial enzyme involved in the biosynthesis of the Mycobacterium tuberculosis cell wall” (Bioorg Med Chem Lett, 2004).
